Where a name gives a salt, the structure may show the parent alone. Read-outs that look alike come from different tables or passages of the source.
What was measured:
PHH spheroids = experiment: Viability (cellular ATP, CellTiter-Glo) of 3D PHH spheroids after single or repeated exposure; assay type: cell-based, human; details: for EC50: read-out: EC50 (viability)
HepaRG = details: cited from earlier work
HepG2 = details: cited from earlier work
HLC = test system: HLC; parameters: method as in Takayama et al. (2013), Tasnim et al. (2016); details: read-out: Sensitivity, HLC Acute, cited from earlier work
[1] = cited from earlier work; for Cmax: human
HepaRG cells = experiment: cells; assay type: cell-based; details: Homo sapiens; for EC50: read-out: EC50 (viability)
hiPS-Hep cells = experiment: Viability (cellular ATP, CellTiter-Glo) of hiPS-Hep cells after single or repeated exposure; assay type: cell-based; details: Homo sapiens; for EC50: read-out: EC50 (viability); for IC50: read-out: 14-day IC50
C3A = test system: C3A; parameters: method as in Fey and Wrzesinski (2012); details: published spheroid model, acute; ref Fey and Wrzesinski (2012); read-out: Sensitivity, C3A Acute; cited from earlier work
Rat Hepatocytes = test system: Rat Hepatocytes; parameters: method as in Schutte et al. (2011); details: published model, acute; ref Schutte et al. (2011); read-out: Sensitivity, Rat Hepatocytes Acute; cited from earlier work
[2] = 4 g APAP daily for 14 days; ref Watkins et al., 2006; cited from earlier work
BSEP = test system: BSEP; parameters: method as in Funk et al., 2001; details: ref Funk et al., 2001; read-out: IC50 of BSEP inhibition; cited from earlier work
[3] = 336 h, HepaRG cells, 14 days repeated exposure, read-out: 14-day IC50
[4] = 336 h, hiPS-Hep cells, 14 days repeated exposure
[5] = published spheroid model, acute, ref Gunness et al. (2013), Mueller et al. (2014), read-out: Sensitivity, HepaRG Acute
[6] = published spheroid model, acute, ref Mueller et al. (2014), Ramaiahgari et al. (2014), Takayama et al. (2013), read-out: Sensitivity, HepG2 Acute
[7] = published spheroid model, repeated dose 6 days, ref Ramaiahgari et al. (2014), read-out: Sensitivity, HepG2 Repeated Dose (6 Days)
[8] = published spheroid model, acute, ref Takayama et al. (2013), Tasnim et al. (2016)

Row | Compound | EC50 (PHH spheroids; Homo sapiens, 48 h) [µM] | EC50 (PHH spheroids; Homo sapiens, 168 h) [µM] | EC50 (PHH spheroids; Homo sapiens, 336 h) [µM] | IC50 (HepaRG cells; [3]) [µM] | EC50 (HepaRG cells; HepaRG, 48 h) [µM] | EC50 (HepaRG cells; HepaRG, 168 h) [µM] | EC50 (HepaRG cells; HepaRG, 336 h) [µM] | EC50 (hiPS-Hep cells; 48 h) [µM] | EC50 (hiPS-Hep cells; 168 h) [µM] | EC50 (hiPS-Hep cells; 336 h) [µM] | IC50 (hiPS-Hep cells; [4]) [µM] | IC50 (HepaRG; [5]) [µM] | IC50 (HepG2; [6]) [µM] | IC50 (HepG2; [7]) [µM] | IC50 (HLC; [8]) [µM] | also measured
1 | aflatoxin B1 |  |  |  |  |  |  |  |  |  |  |  |  |  |  |  | IC50 (PHH spheroids; read-out: Sensitivity, PHH Acute): 0.4 µM; IC50 (PHH spheroids; read-out: Sensitivity, PHH Repeated Dose (14 Days)): 0.03 µM; IC50 (HepaRG; read-out: Sensitivity, HepaRG Acute): 1.6 µM; IC50 (HepG2; read-out: Sensitivity, HepG2 Acute): > 200 µM; IC50 (HLC): 7 µM; exposure levels detected in exposed individuals ([1]; in vivo): 28.5 nM; Cmax ([1]; read-out: Cmax or exposure value (toxic), in vivo): 30 nM
2 | CC(=O)Nc1ccc(O)cc1 [APAP, acetaminophen] | > 10000 | 2700 | 644 | 1310 | 5920 | 1590 | 1310 | > 10000 | > 10000 | 9440 | 9440 | 3000 | 24000 | 9400 | 30000 | IC50 (PHH spheroids; Homo sapiens, 336 h, PHH spheroids, 14 days repeated exposure, read-out: 14-day IC50): 644 µM; IC50 (HepaRG cells; read-out: 48-hour IC50, HepaRG cells, acute, 48 hours): 5920 µM; IC50 (C3A): 40000 µM; IC50 (Rat Hepatocytes): 40000 µM; healthy volunteers with serum alanine aminotransferase elevations above three times the upper limit [2]: 31%–44%; peak APAP serum level average ([1]; healthy volunteers, 4 g APAP daily for 14 days, ref Watkins et al., 2006): 99.2 µM; APAP plasma concentration for which immediate treatment is stipulated ([1]; patients after acute overdose, depending on additional risk factors, ref Vale and Proudfoot, 1995): 0.7 to 1.3 mM; Cmax ([1]; read-out: Cmax or exposure value (toxic), toxic exposure, ref Vale and Proudfoot, 1995): 700000 nM
3 | Cc1c(C)c2c(c(C)c1O)CCC(C)(COc1ccc(CC3SC(=O)NC3=O)cc1)O2 (stereo not drawn) [Troglitazone, troglitazone] | 37.4 | 4.2 | 1.5 |  | > 100 | 36.5 | 34.6 | 46 | 33.9 | 18.7 |  | 400 | 80 to 150 | 100 | 50 | IC50 (PHH spheroids; Homo sapiens, read-out: Sensitivity, PHH Acute): 37.4 µM; IC50 (HepaRG cells; HepaRG, 336 h, read-out: 14-day IC50): 34.6 µM; IC50 (hiPS-Hep cells; 336 h): 18.7 µM; Cmax ([1]; read-out: therapeutic Cmax, ref Loi et al., 1999): 2820 nM
4 | CN(C)CCCN1c2ccccc2Sc2ccc(Cl)cc21 [Chlorpromazine, chlorpromazine] | 16.6 | 8.8 | 4.6 | 34.1 | 67 | 32.4 | 34.1 | 38.6 | 23.7 | 24.4 | 24.6 | 98 | 43 |  |  | IC50 (HepaRG; published spheroid model, repeated dose 72 h, ref Mueller et al. (2014), read-out: Sensitivity, HepaRG Repeated Dose (72 h)): 43 µM; Cmax ([1]; read-out: human toxic Cmax, toxic exposure, ref Regenthal et al., 1999): 1600 nM
5 | Cc1c(C)c2c(c(C)c1OS(=O)(=O)O)CCC(C)(COc1ccc(CC3SC(=O)NC3=O)cc1)O2 (stereo not drawn) [troglitazone sulfate] |  |  |  |  |  |  |  |  |  |  |  |  |  |  |  | IC50 (BSEP): 0.4 µM
6 | CCOC(=O)CN[C@@H](C(=O)N1CC[C@H]1C(=O)NCc1ccc(/C(N)=N\O)cc1)C1CCCCC1 [Ximelagatran, ximelagatran] | > 400 | 379 | 165 |  | > 400 | > 400 | > 400 | > 400 | > 400 | > 400 |  |  |  |  |  | 

— publication PMC5363699, “Transcriptional, Functional, and Mechanistic Comparisons of Stem Cell–Derived Hepatocytes, HepaRG Cells, and Three-Dimensional Human Hepatocyte Spheroids as Predictive In Vitro Systems for Drug-Induced Liver Injury” (Drug Metabolism and Disposition, 2017)
